In PubChem BioAssay (NCI):
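GI50: concentration for 50% inhibition of growth. The concentration for full growth arrest is given as TGI.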

Columns and labels:
Experiment in all cases: NCI anticancer screen, dose series, 384-well format
A549 NSCLC = test system: A549 NSCLC
BT-549 breast = test system: BT-549 breast
CAKI-1 renal = test system: CAKI-1 renal
CCRF-CEM leukemia = test system: CCRF-CEM leukemia
COLO 205 colon = test system: COLO 205 colon
EKVX NSCLC = test system: EKVX NSCLC
HCC-2998 colon = test system: HCC-2998 colon
HL-60(TB) leukemia = test system: HL-60(TB) leukemia
HOP-62 NSCLC = test system: HOP-62 NSCLC
HS 578T breast = test system: HS 578T breast
KM12 colon = test system: KM12 colon
LOX IMVI melanoma = test system: LOX IMVI melanoma
M14 melanoma = test system: M14 melanoma
MALME-3M melanoma = test system: MALME-3M melanoma
MDA-MB-435 melanoma = test system: MDA-MB-435 melanoma
MDA-MB-468 breast = test system: MDA-MB-468 breast
MOLT-4 leukemia = test system: MOLT-4 leukemia
NCI-H226 lung = test system: NCI-H226 lung
NCI-H23 lung = test system: NCI-H23 lung
NCI-H322M lung = test system: NCI-H322M lung
NCI-H460 NSCLC = test system: NCI-H460 NSCLC
NCI-H522 lung = test system: NCI-H522 lung
NCI/ADR-RES ovarian = test system: NCI/ADR-RES ovarian
OVCAR-3 ovarian = test system: OVCAR-3 ovarian
OVCAR-4 ovarian = test system: OVCAR-4 ovarian
OVCAR-5 ovarian = test system: OVCAR-5 ovarian
OVCAR-8 ovarian = test system: OVCAR-8 ovarian
RPMI-8226 leukemia = test system: RPMI-8226 leukemia
RXF 393 renal = test system: RXF 393 renal
SF-268 CNS = test system: SF-268 CNS
SF-539 CNS = test system: SF-539 CNS
SK-MEL-28 melanoma = test system: SK-MEL-28 melanoma
SK-MEL-5 melanoma = test system: SK-MEL-5 melanoma
SN12C renal = test system: SN12C renal
SNB-19 CNS = test system: SNB-19 CNS
SNB-75 CNS = test system: SNB-75 CNS
SR leukemia = test system: SR leukemia
SW-620 colon = test system: SW-620 colon
TK-10 renal = test system: TK-10 renal
UACC-257 melanoma = test system: UACC-257 melanoma
UACC-62 melanoma = test system: UACC-62 melanoma
UO-31 renal = test system: UO-31 renal

CN1CC[C@@H](c2c(O)cc(O)c3c(=O)cc(-c4ccccc4Cl)oc23)[C@@H](O)C1
GI50 (A549 NSCLC): 34.9 nM
TGI (A549 NSCLC): > 100000 nM
GI50 (BT-549 breast): 25.6 nM
TGI (BT-549 breast): 90.8 nM
GI50 (CAKI-1 renal): 35.1 nM
TGI (CAKI-1 renal): > 100000 nM
GI50 (CCRF-CEM leukemia): 19.4 nM
TGI (CCRF-CEM leukemia): 36.1 nM
GI50 (COLO 205 colon): 31.3 nM
TGI (COLO 205 colon): 82.4 nM
GI50 (EKVX NSCLC): 59.9 nM
TGI (EKVX NSCLC): 299 nM
GI50 (HCC-2998 colon): 42.4 nM
TGI (HCC-2998 colon): 151 nM
GI50 (HL-60(TB) leukemia): 13.3 nM
TGI (HL-60(TB) leukemia): 26.3 nM
GI50 (HOP-62 NSCLC): 20.2 nM
TGI (HOP-62 NSCLC): 45.6 nM
GI50 (HS 578T breast): 22.8 nM
TGI (HS 578T breast): 47.9 nM
GI50 (KM12 colon): 27.9 nM
TGI (KM12 colon): 244 nM
GI50 (LOX IMVI melanoma): 20.8 nM
TGI (LOX IMVI melanoma): 63.2 nM
GI50 (M14 melanoma): 32.5 nM
TGI (M14 melanoma): 116 nM
GI50 (MALME-3M melanoma): 42.5 nM
TGI (MALME-3M melanoma): 141 nM
GI50 (MDA-MB-435 melanoma): 103 nM
TGI (MDA-MB-435 melanoma): 255 nM
GI50 (MDA-MB-468 breast): 28.3 nM
TGI (MDA-MB-468 breast): 87.4 nM
GI50 (MOLT-4 leukemia): 23.7 nM
TGI (MOLT-4 leukemia): 45 nM
GI50 (NCI-H226 lung): 18.7 nM
TGI (NCI-H226 lung): 63.9 nM
GI50 (NCI-H23 lung): 30.1 nM
TGI (NCI-H23 lung): 112 nM
GI50 (NCI-H322M lung): 33.7 nM
TGI (NCI-H322M lung): 126 nM
GI50 (NCI-H460 NSCLC): 21.5 nM
TGI (NCI-H460 NSCLC): 49.6 nM
GI50 (NCI-H522 lung): 109 nM
TGI (NCI-H522 lung): 252 nM
GI50 (NCI/ADR-RES ovarian): 89.6 nM
TGI (NCI/ADR-RES ovarian): 319 nM
GI50 (OVCAR-3 ovarian): 33.1 nM
TGI (OVCAR-3 ovarian): 95 nM
GI50 (OVCAR-4 ovarian): 59.6 nM
TGI (OVCAR-4 ovarian): 282 nM
GI50 (OVCAR-5 ovarian): 24.2 nM
TGI (OVCAR-5 ovarian): 70.8 nM
GI50 (OVCAR-8 ovarian): 25 nM
TGI (OVCAR-8 ovarian): 78 nM
GI50 (RPMI-8226 leukemia): 22.7 nM
TGI (RPMI-8226 leukemia): 51.3 nM
GI50 (RXF 393 renal): 19.1 nM
TGI (RXF 393 renal): 38.6 nM
GI50 (SF-268 CNS): 17.8 nM
TGI (SF-268 CNS): 38.6 nM
GI50 (SF-539 CNS): 24.7 nM
TGI (SF-539 CNS): 72 nM
GI50 (SK-MEL-28 melanoma): 28.5 nM
TGI (SK-MEL-28 melanoma): 132 nM
GI50 (SK-MEL-5 melanoma): 29.8 nM
TGI (SK-MEL-5 melanoma): 56.8 nM
GI50 (SN12C renal): 28 nM
TGI (SN12C renal): 91.1 nM
GI50 (SNB-19 CNS): 50.3 nM
TGI (SNB-19 CNS): > 100000 nM
GI50 (SNB-75 CNS): 113 nM
TGI (SNB-75 CNS): 244 nM
GI50 (SR leukemia): 10.2 nM
TGI (SR leukemia): 22.2 nM
GI50 (SW-620 colon): 34.8 nM
TGI (SW-620 colon): 204 nM
GI50 (TK-10 renal): 35.7 nM
TGI (TK-10 renal): > 100000 nM
GI50 (UACC-257 melanoma): 51.5 nM
TGI (UACC-257 melanoma): 173 nM
GI50 (UACC-62 melanoma): 17.8 nM
TGI (UACC-62 melanoma): 40.7 nM
GI50 (UO-31 renal): 36 nM
TGI (UO-31 renal): > 100000 nM
